{"source": "PubChem BioAssay AID1996"}
{"conditions": "buffer; pH 7.4; 200.0 µM", "units": {"solubility kinetic": "µg/mL"}}
{"smiles": "CC(C)c1ccc(Nc2ccc(C(=O)O)cc2[N+](=O)[O-])cc1", "solubility kinetic": "> 45"}
{"smiles": "C=CCNC(=S)N1CCC(C(=O)c2ccc(C)cc2)CC1", "solubility kinetic": "> 45.4"}
{"smiles": "Cc1ccc(OCC(O)CN2CCOCC2)cc1", "note": "(stereo unspecified)", "solubility kinetic": 33.4}
{"smiles": "CC(=O)Nc1ccc(OCC(=O)N2CCc3ccccc3C2)cc1", "solubility kinetic": "> 48.7"}
{"smiles": "CCOC(=O)C1CCN(C(=O)c2cc3cc(F)ccc3[nH]2)CC1", "solubility kinetic": 32.4}
{"smiles": "OCCN1CCN(c2cc(C(F)(F)F)nc3ccccc23)CC1", "solubility kinetic": "> 48.8"}
{"smiles": "CNc1nc(N)c([N+](=O)[O-])c(Nc2ccccc2OC)n1", "solubility kinetic": 0.7}
{"smiles": "CCC(=NCc1cccnc1)c1c(O)n(-c2ccccc2)c(=O)[nH]c1=O", "solubility kinetic": 43.5}
{"smiles": "CC(=O)Nc1ccc(NC(=O)Nc2cccc(Cl)c2)cc1", "solubility kinetic": 1.4}
{"smiles": "CN(c1ccccc1)c1nc(N)c([N+](=O)[O-])c(N2CCCCC2)n1", "solubility kinetic": 13}
{"smiles": "Brc1cccc(Nc2nc(-c3cccnc3)cs2)c1", "solubility kinetic": "< 0.2"}
{"smiles": "COc1cccc(OCc2ccc(Cl)cc2)c1C#N", "solubility kinetic": "< 0.6"}
{"smiles": "CCC(C(=O)Nc1ccc(C(=O)N2CCCC2)cc1)c1ccccc1", "note": "(stereo unspecified)", "solubility kinetic": "> 50.5"}
{"smiles": "CN(C)C(=O)COc1ccc2c3c(c(=O)oc2c1)CCCC3", "solubility kinetic": 44.6}
{"smiles": "CC(C)NC(=O)CSc1ncccc1-c1nc2ccccc2[nH]1", "solubility kinetic": 46.9}
{"smiles": "C=CCn1c(O)c(C(CC)=NCC2CCCO2)c(=O)[nH]c1=O", "note": "(stereo unspecified)", "solubility kinetic": "> 46.1"}
{"smiles": "N#C/C(=C(/O)CN1CCCC1)c1nc(-c2ccccc2)cs1", "solubility kinetic": "> 46.7"}
{"smiles": "O=C(Nc1ccc(Cl)cc1Cl)c1ccc2ncsc2c1", "solubility kinetic": 0.4}
{"smiles": "CCCCc1ccc(NC(=O)c2cnccn2)cc1", "solubility kinetic": 4}
{"smiles": "C(=C\\c1nc(-c2cccnc2)no1)/c1ccccc1", "solubility kinetic": 3.4}
{"smiles": "O=Cc1c(NCc2cccc(F)c2)c2ccccc2[nH]c1=O", "solubility kinetic": 19.8}
{"smiles": "Cc1cc(Cl)ccc1OCC(=O)Nc1ccncc1", "solubility kinetic": "> 41.5"}
{"smiles": "COc1ccccc1CNC(=O)Cn1cc([N+](=O)[O-])ccc1=O", "solubility kinetic": "> 47.6"}
{"smiles": "N#Cc1c(-c2cccc(Cl)c2)[nH]c(=S)[nH]c1=O", "solubility kinetic": "> 39.6"}
{"smiles": "CCOc1ccc(NC(C)=O)cc1[N+](=O)[O-]", "solubility kinetic": "> 33.6"}
{"smiles": "Cc1cccc(NC(=O)c2ccc(OCc3c(C)noc3C)cc2)c1C", "solubility kinetic": 3.4}
{"smiles": "COc1ccc(CNC(=O)CCSCc2cccc(F)c2)cc1", "solubility kinetic": "> 50"}
{"smiles": "CC(C)c1ccc(/C=C/c2[nH]c(=O)[nH]c(=O)c2[N+](=O)[O-])cc1", "solubility kinetic": 19.3}
{"smiles": "O=C(CN1CCCCC1)N1CCN(c2ccccc2)CC1", "solubility kinetic": "> 43.1"}
{"smiles": "O=C(O)c1cccc2c1C(=O)N(c1ccccc1)C2", "solubility kinetic": "> 38"}
{"smiles": "CCOc1ccc(C2Nc3ccccc3C(CC)(CC)O2)cc1", "note": "(stereo unspecified)", "solubility kinetic": 2.1}
{"smiles": "Cc1cc(NC(=O)c2ccccc2)no1", "solubility kinetic": 28.8}
{"smiles": "O=C(Cc1ccc(F)cc1)OCN1C(=O)c2ccccc2C1=O", "solubility kinetic": 39.8}
{"smiles": "CC12C(=O)N(c3ccccc3)C(=O)C1C(c1ccccc1)N1CCCN12", "note": "(stereo unspecified)", "solubility kinetic": "> 52.1"}
{"smiles": "CCCn1c(C(O)c2cc(OC)c(OC)c(OC)c2)nc2ccccc21", "note": "(stereo unspecified)", "solubility kinetic": 49.3}
{"smiles": "COc1ccc(CNC(=O)C(C)OC(=O)c2cccs2)cc1", "note": "(stereo unspecified)", "solubility kinetic": 26.9}
{"smiles": "CCOC(=O)C1CCN(Cc2cc(=O)oc3cc(C)ccc23)CC1", "solubility kinetic": 43.1}
{"smiles": "COc1cccc(C(=O)Nc2nc3ccccc3s2)c1", "solubility kinetic": 1.6}
{"smiles": "Cc1cccc(C(=O)OCC(=O)N2CC(=O)Nc3ccccc32)c1C", "solubility kinetic": 4.2}
{"smiles": "Cn1cc(C(=O)C(=O)N2CCCC2)c2ccccc21", "solubility kinetic": "> 38.4"}
{"smiles": "COCCn1c(C)c(C)c2c(NCCc3ccccc3)ncnc21", "solubility kinetic": 34.8}
{"smiles": "O=C(NC(=S)Nc1ccc2oc(=O)ccc2c1)c1ccccc1F", "solubility kinetic": 1.4}
{"smiles": "CC1(C)COC2(OC1)C(=O)Nc1ccccc12", "solubility kinetic": "> 35"}
{"smiles": "COc1ccc2nc(N3C(=O)CNC3=S)sc2c1", "solubility kinetic": 19.5}
{"smiles": "Cc1ccc(SCc2cn3c(C)cc(C)nc3n2)cc1", "solubility kinetic": "> 42.5"}
{"smiles": "COc1ccc(NC(=O)c2cnc(SC)nc2C)c(OC)c1", "solubility kinetic": "> 47.9"}
{"smiles": "N#Cc1ccc(COC(=O)c2cccnc2Cl)cc1", "solubility kinetic": 26.9}
{"smiles": "Cc1onc(C(=O)Nc2cccc(C(F)(F)F)c2)c1[N+](=O)[O-]", "solubility kinetic": 32.4}
{"smiles": "Fc1cc(Br)ccc1NC(=S)Nc1cccnc1", "solubility kinetic": 44.8}
{"smiles": "CCOC(=O)N1CCN(S(=O)(=O)c2ccc(Cl)cc2)CC1", "solubility kinetic": 48.4}
{"smiles": "N#CCc1nc(-c2cc3ccccc3oc2=O)cs1", "solubility kinetic": 5.4}
{"smiles": "Cc1ccc(NC(=O)N[C@@H](CC(C)C)C(=O)O)c(C)c1", "solubility kinetic": "> 41.8"}
{"smiles": "N#CCCC1CCCC=C1N(Cc1ccccc1)C(=O)C(Cl)Cl", "note": "(stereo unspecified)", "solubility kinetic": "> 52.7"}
{"smiles": "COc1ncnc(-c2ccccc2)c1-c1ccccc1", "solubility kinetic": 14.9}
{"smiles": "COc1ccc(NC(=O)COC(=O)CCC2CCCC2)c(OC)c1", "solubility kinetic": 17.4}
{"smiles": "CC1C(=O)N2CCCc3cc(NC(=O)C4CCCCC4)cc1c32", "note": "(stereo unspecified)", "solubility kinetic": "> 46.9"}
{"smiles": "O=C(CNS(=O)(=O)c1ccccc1)NCc1ccco1", "solubility kinetic": "> 44.1"}
{"smiles": "CCc1nc2cccnc2n1-c1ccc(C(=O)O)cc1", "solubility kinetic": "> 40.1"}
{"smiles": "CC(C)=CC1C(C(=O)NCCc2ccccc2)C1(C)C", "note": "(stereo unspecified)", "solubility kinetic": 27.6}
{"smiles": "CC(=O)c1c(COC(=O)c2ccc(Cl)cc2)nc2ccccc2[n+]1[O-]", "solubility kinetic": 0.6}
{"smiles": "Cc1onc(-c2c(F)cccc2Cl)c1C(=O)NC1CC1", "solubility kinetic": "> 44.2"}
{"smiles": "Cc1nn(CCCC(=O)Nc2cccnc2Cl)c(C)c1[N+](=O)[O-]", "solubility kinetic": "> 50.7"}
{"smiles": "COc1ccc(COC(=O)CNC(=O)C2CCCCC2)cc1F", "solubility kinetic": 18.4}
{"smiles": "Cn1ccnc1C1CCCCN1Cc1nc(Cc2ccccc2F)no1", "note": "(stereo unspecified)", "solubility kinetic": 49.9}
{"smiles": "CCCOc1ccc(NC(=O)c2cc3cc(C)ccc3[nH]2)cc1", "solubility kinetic": "< 0.3"}
{"smiles": "COc1ccc(C(=O)NCC(c2ccco2)N2CCOCC2)cc1OC", "note": "(stereo unspecified)", "solubility kinetic": "> 54.1"}
{"smiles": "CCOc1ccc2nc(SCC3CC3(Cl)Cl)[nH]c2c1", "note": "(stereo unspecified)", "solubility kinetic": 29.4}
{"smiles": "Cc1ccc(/C(N)=N/OC(=O)CCCc2ccccc2)cc1", "solubility kinetic": 2}
{"smiles": "C=CC(=O)NC(C)(C)CCN1CCOCC1", "solubility kinetic": "> 33.9"}
{"smiles": "Nc1nc(-c2cccs2)c(-c2cccs2)s1", "solubility kinetic": 5.8}
{"smiles": "COc1ccc(CSC2=NCCN2)cc1Br", "solubility kinetic": 30.9}
{"smiles": "Fc1ccc(CN2CCN(c3ncccn3)CC2)c(F)c1", "solubility kinetic": 32.2}
{"smiles": "CCc1nnc(NC(=O)CS(=O)(=O)Cc2ccccc2)s1", "solubility kinetic": "> 48.8"}
{"smiles": "O=C(NCCCn1ccnc1)C(=O)c1c[nH]c2ccccc12", "solubility kinetic": "> 44.4"}
{"smiles": "CC(NC(=O)c1ccco1)C12CC3CC(CC(C3)C1)C2", "note": "(stereo unspecified)", "solubility kinetic": "> 41"}
{"smiles": "Cc1ccc(S(=O)(=O)NC2CC(C)(C)NC(C)(C)C2)cc1", "solubility kinetic": 40.5}
{"smiles": "Cl.ClCCN1CCN(c2ccnc3cc(Cl)ccc23)CC1", "solubility kinetic": "> 57.5"}
{"smiles": "CCc1noc(C)c1C(=O)OCC(=O)c1ccc(OC)c(OC)c1", "solubility kinetic": 46}
{"smiles": "CN(C)CCCN(C(=O)c1ccco1)c1nc2ccc(F)cc2s1.Cl", "solubility kinetic": 55}
{"smiles": "COc1ccc(CNC(=O)c2c(C)cc(=O)oc2C)cc1", "solubility kinetic": "> 43.1"}
{"smiles": "Cc1ncc(CN2CCC(CO)(Cc3ccccc3)CC2)s1", "solubility kinetic": 45.5}
{"smiles": "CCCC(=O)OCC(=O)Nc1ccc2[nH]c(=O)[nH]c2c1", "solubility kinetic": "> 41.6"}
{"smiles": "CC(=O)CC(C)(C)Nc1nc2ccc([N+](=O)[O-])cc2o1", "solubility kinetic": "> 41.6"}
{"smiles": "CC(=O)c1ccc(OCCOc2ccc([N+](=O)[O-])cc2)cc1", "solubility kinetic": 3.7}
{"smiles": "O=C1NC(=S)N/C1=C/c1ccc2c(c1)OCO2", "solubility kinetic": 1.5}
{"smiles": "COc1cccc(Nc2ccc(C(=O)O)cc2N)c1", "solubility kinetic": "> 38.7"}
{"smiles": "COC(=O)c1ccc(S(=O)(=O)N2CCCN(Cc3ccc(F)cc3)CC2)n1C", "solubility kinetic": "> 61.4"}
{"smiles": "O=C(Cc1cccs1)NCCCc1ccccc1", "solubility kinetic": "> 38.9"}
{"smiles": "CCCCCCNC(=O)Cc1ccc(Br)cc1", "solubility kinetic": 5}
{"smiles": "O=C(O)C(NS(=O)(=O)c1ccccc1)C(O)c1ccccc1", "note": "(stereo unspecified)", "solubility kinetic": 33.9}
{"smiles": "Cc1cnc(C(=O)OCC(=O)NCc2cccc(Cl)c2)cn1", "solubility kinetic": "> 48"}
{"smiles": "O=C(COC(=O)c1cccc(F)c1)NC(=O)NC1CCCC1", "solubility kinetic": 41.4}
{"smiles": "Cn1cc2cc(NC(N)=S)ccc2n1", "solubility kinetic": "> 30.9"}
{"smiles": "N#CC(c1nc2ccccc2nc1N1CCOCC1)S(=O)(=O)c1ccccc1", "note": "(stereo unspecified)", "solubility kinetic": "> 59.2"}
{"smiles": "Cc1nc(C)c(C(=O)OCC(=O)NCc2ccccc2)s1", "solubility kinetic": "> 45.7"}
{"smiles": "CCc1ccc(NC(=O)NCc2cccnc2)cc1", "solubility kinetic": "> 38.3"}
{"smiles": "O=C1NCC(NC(=O)C(F)(F)F)c2cc3c(cc21)OCO3", "note": "(stereo unspecified)", "solubility kinetic": "> 45.3"}
{"smiles": "CCSS(=O)(=O)c1cccc2cccnc12", "solubility kinetic": "> 38"}
{"smiles": "Cc1cc(C)n2c(SCC(=O)Nc3cccc(S(N)(=O)=O)c3)nnc2n1", "solubility kinetic": "> 58.9"}
{"smiles": "O=C(CN1CCCCC1)NNC(=O)c1ccc([N+](=O)[O-])cc1", "solubility kinetic": "> 45.9"}
{"smiles": "Cc1ccc(C)c(Nc2c([N+](=O)[O-])c(=O)oc3ccccc23)c1", "solubility kinetic": 2.4}
{"smiles": "COc1ccccc1C(=O)NCCCCNC(=O)c1ccccc1OC", "solubility kinetic": "> 53.5"}
{"smiles": "COC(=O)c1c(NC(C)=O)sc(C(=O)Nc2ccccc2)c1C", "solubility kinetic": 0.9}
{"smiles": "Cc1cc(C)c(S(=O)(=O)NC2CC2)c(C)c1", "solubility kinetic": "> 35.9"}
{"smiles": "CCCC(C(=O)Nc1ccc2c(C)cc(=O)oc2c1)c1ccccc1", "note": "(stereo unspecified)", "solubility kinetic": 2.9}
{"smiles": "CCOc1ccc(CC(=O)Nc2nccs2)cc1OCC", "solubility kinetic": 31.7}
{"smiles": "COc1ccc(OC)c2nc(-c3ccc4c(c3)OCO4)ccc12", "solubility kinetic": "< 0.7"}
{"smiles": "CC(C)(C)C(=O)CSc1ncccn1", "solubility kinetic": 24.3}
{"smiles": "CCOCCCNC(=O)c1c[nH]c2c(CC)cccc2c1=O", "solubility kinetic": "> 45.4"}
{"smiles": "CN(CC(=O)Nc1ccc(SC(F)F)cc1)C1CCCCC1", "solubility kinetic": 32.2}
{"smiles": "Br.Cn1ccnc1SCC(=O)c1ccc(Cl)cc1", "solubility kinetic": 48.9}
{"smiles": "O=S(=O)(NCc1cccnc1)c1ccc2ccccc2c1", "solubility kinetic": 41.3}
{"smiles": "CC(=O)Nc1ccc(OCCOc2ccc(NC(C)=O)cc2)cc1", "solubility kinetic": 2.2}
{"smiles": "COC(=O)c1c(C)oc(C)c1S(=O)(=O)NCc1ccco1", "solubility kinetic": "> 47"}
{"smiles": "Cc1ccc(C(=O)Nc2ccc(N3CCN(C)CC3)nc2)cc1", "solubility kinetic": "> 46.6"}
{"smiles": "CN(/C=C/c1c([N+](=O)[O-])c(=O)n(C)c(=O)n1C)c1ccccc1", "solubility kinetic": 4.9}
{"smiles": "Cc1ccc(CONC(=O)c2ccc(Cl)cc2)cc1", "solubility kinetic": 2}
{"smiles": "N/C(=N\\O)c1ccccc1-n1cccc1", "solubility kinetic": "> 30.2"}
{"smiles": "CC1(C)SC(=S)N(c2ccccc2)C1/[N+]([O-])=C/c1cccc([N+](=O)[O-])c1", "note": "(stereo unspecified)", "solubility kinetic": 6.2}
{"smiles": "CN(C(=S)NC(=O)c1ccc(F)cc1)C1CCCCC1", "solubility kinetic": 8.8}
{"smiles": "CC(=O)c1cccc(NC(=O)c2cccc(NC(=O)c3ccco3)c2)c1", "solubility kinetic": "< 0.4"}
